The results in this text go back to patent US10370366B2 (Flatley Discovery Lab, LLC, priority 2013, dated 2019).

The experiment deals with T1, human F508del CFTR (Homo sapiens, UniProt P13569, DEL508-508).
T1 construct: expressed in transfected cells; host or cells: Fisher Rat Thyroid (FRT) cells
Nature of the experiment: CFTR-YFP High Throughput Assay. Format: cell-based. The conditions noted are these: FRT cells expressing human F508del CFTR and YFP; for Emax: EMax normalized to the positive control, read-out: % Efficacy. Summed up: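 Corrector mode: 24-26 h compound exposure (2 nM-40 μM, 37° C) of FRT cells carrying human F508del CFTR and YFP-H148Q/I152L, followed by washing and 60-120 min RT stimulation with 20 μM forskolin and 30 μM P3. CFTR activity is the least-squares-fitted rate of YFP quenching (Ex 500/Em 540 nm) after iodide addition.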

T1 sequence (P13569 with tags, fused parts or gaps DEL508-508): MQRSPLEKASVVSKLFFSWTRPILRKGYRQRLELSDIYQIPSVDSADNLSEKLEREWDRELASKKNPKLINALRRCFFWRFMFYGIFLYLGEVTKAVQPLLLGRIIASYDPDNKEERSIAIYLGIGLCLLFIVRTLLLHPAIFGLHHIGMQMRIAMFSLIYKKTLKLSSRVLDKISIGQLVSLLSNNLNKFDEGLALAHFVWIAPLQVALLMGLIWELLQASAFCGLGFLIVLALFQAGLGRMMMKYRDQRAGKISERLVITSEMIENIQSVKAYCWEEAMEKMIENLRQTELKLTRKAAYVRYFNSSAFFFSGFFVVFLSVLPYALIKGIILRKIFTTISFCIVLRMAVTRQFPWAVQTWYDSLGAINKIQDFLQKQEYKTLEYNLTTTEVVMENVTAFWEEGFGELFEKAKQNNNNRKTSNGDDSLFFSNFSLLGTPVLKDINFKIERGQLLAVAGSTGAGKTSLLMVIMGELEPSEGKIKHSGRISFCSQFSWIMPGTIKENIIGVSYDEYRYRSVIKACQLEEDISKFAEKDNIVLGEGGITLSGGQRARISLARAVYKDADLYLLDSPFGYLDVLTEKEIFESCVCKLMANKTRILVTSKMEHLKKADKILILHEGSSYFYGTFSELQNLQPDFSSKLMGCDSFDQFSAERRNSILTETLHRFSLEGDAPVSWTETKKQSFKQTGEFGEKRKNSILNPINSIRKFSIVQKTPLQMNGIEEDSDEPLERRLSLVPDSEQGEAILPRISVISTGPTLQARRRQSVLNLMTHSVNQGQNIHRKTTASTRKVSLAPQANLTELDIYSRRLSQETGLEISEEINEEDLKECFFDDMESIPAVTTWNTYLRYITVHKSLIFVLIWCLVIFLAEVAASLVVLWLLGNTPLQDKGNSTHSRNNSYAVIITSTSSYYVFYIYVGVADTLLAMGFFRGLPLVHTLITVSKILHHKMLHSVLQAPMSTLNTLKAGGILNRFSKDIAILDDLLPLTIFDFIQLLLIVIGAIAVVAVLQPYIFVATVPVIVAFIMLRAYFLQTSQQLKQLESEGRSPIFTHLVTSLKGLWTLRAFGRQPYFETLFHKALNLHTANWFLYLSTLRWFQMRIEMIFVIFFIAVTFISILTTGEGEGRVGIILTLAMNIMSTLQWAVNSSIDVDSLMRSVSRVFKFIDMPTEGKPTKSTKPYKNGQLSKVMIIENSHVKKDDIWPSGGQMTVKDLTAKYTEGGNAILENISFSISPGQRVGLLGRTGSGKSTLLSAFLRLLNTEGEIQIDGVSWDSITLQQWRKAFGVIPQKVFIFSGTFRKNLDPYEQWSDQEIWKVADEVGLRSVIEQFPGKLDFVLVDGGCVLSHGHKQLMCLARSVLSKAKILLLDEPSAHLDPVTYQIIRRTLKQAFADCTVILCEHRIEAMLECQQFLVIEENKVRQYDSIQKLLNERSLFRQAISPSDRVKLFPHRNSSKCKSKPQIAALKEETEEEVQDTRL

For the compound `CCN(C(=O)c1nn(-c2ccccc2)c(=O)c2c1c1ccccc1n2C)c1ncnc2c1cnn2C` [Example 164, N-ethyl-5-methyl-N-(1-methyl-1H-pyrazolo[3,4-d]pyrimidin-4-yl)-4-oxo-3-phenyl-4,5-dihydro-3H-pyridazino[4,5-b]indole-1-carboxamide], the Emax lay in the range of 30 to 80%.
As usually defined, the EC50 is the midpoint of the concentration-response curve. As for `CCN(C(=O)c1nn(-c2ccc(C)cc2)c(=O)c2c1c1cc(Cl)ccc1n2C)c1ccccc1` [Example 165, 8-chloro-N-ethyl-5-methyl-4-oxo-N-phenyl-3-(p-tolyl)-4,5-dihydro-3H-pyridazino[4,5-b]indole-1-carboxamide], the Emax was 30 to 80% and the EC50 was less than 10 µM.
Consider `CCN(C(=O)c1nn(-c2ccc(C)cc2)c(=O)c2c1c1ccc(Cl)cc1n2C)c1ccccc1` [Example 166, 7-chloro-N-ethyl-5-methyl-4-oxo-N-phenyl-3-(p-tolyl)-4,5-dihydro-3H-pyridazino[4,5-b]indole-1-carboxamide], for which the Emax is 30 to 80% and the EC50 was less than 10 µM.
As to `CCN(C(=O)c1nn(-c2ccccn2)c(=O)c2c1c1ccccc1n2C)c1ccccc1` [Example 167, N-ethyl-5-methyl-4-oxo-N-phenyl-3-(pyridin-2-yl)-4,5-dihydro-3H-pyridazino[4,5-b]indole-1-carboxamide], the Emax was in the range of 30 to 80%.
As to `CCN(C(=O)c1nn(-c2cccnc2)c(=O)c2c1c1ccccc1n2C)c1ccccc1` [Example 168], the Emax was in the range of 30 to 80%.
Consider `CCN(C(=O)c1nn(-c2ccncc2)c(=O)c2c1c1ccccc1n2C)c1ccccc1` [Example 169, N-ethyl-5-methyl-4-oxo-N-phenyl-3-(pyridin-4-yl)-4,5-dihydro-3H-pyridazino[4,5-b]indole-1-carboxamide], for which the Emax is 30 to 80%.
Same read-out and setting: for `CCN(C(=O)c1nn(-c2nccs2)c(=O)c2c1c1ccccc1n2C)c1ccccc1` [Example 170, N-ethyl-5-methyl-4-oxo-N-phenyl-3-(thiazol-2-yl)-4,5-dihydro-3H-pyridazino[4,5-b]indole-1-carboxamide] the value was 30 to 80%.
`CCN(C(=O)c1nn(-c2ncccn2)c(=O)c2c1c1ccccc1n2C)c1ccccc1` [Example 171, N-ethyl-5-methyl-4-oxo-N-phenyl-3-(pyrimidin-2-yl)-4,5-dihydro-3H-pyridazino[4,5-b]indole-1-carboxamide]: the Emax was 10 to 30% and the EC50 was greater than 20 µM.
Turning to `CCN(C(=O)c1nn(-c2nc3ccccc3s2)c(=O)c2c1c1ccccc1n2C)c1ccccc1` [Example 172, 3-(benzo[d]thiazol-2-yl)-N-ethyl-5-methyl-4-oxo-N-phenyl-4,5-dihydro-3H-pyridazino[4,5-b]indole-1-carboxamide], the Emax lay in the range of 10 to 30%.
For the compound `CCN(C(=O)c1nn(-c2nc3ccccc3n2C)c(=O)c2c1c1ccccc1n2C)c1ccccc1` [Example 173, N-ethyl-5-methyl-3-(1-methyl-1H-benzo[d]imidazol-2-yl)-4-oxo-N-phenyl-4,5-dihydro-3H-pyridazino[4,5-b]indole-1-carboxamide], the Emax lay in the range of 10 to 30%.
In the case of `CCN(C(=O)c1nn(-c2ccccc2F)c(=O)c2c1c1ccccc1n2C)c1ccccc1` [Example 174, N-ethyl-3-(2-fluorophenyl)-5-methyl-4-oxo-N-phenyl-4,5-dihydro-3H-pyridazino[4,5-b]indole-1-carboxamide], the Emax was in the range of 30 to 80%.
Consider `CCN(C(=O)c1nn(-c2ccccc2)c(=O)c2c1c1ccccc1n2C)c1cccc(F)c1` [Example 175, N-ethyl-N-(3-fluorophenyl)-5-methyl-4-oxo-3-phenyl-4,5-dihydro-3H-pyridazino[4,5-b]indole-1-carboxamide], for which the Emax is 30 to 80% and the EC50 was greater than 20 µM.
`CCN(C(=O)c1nn(-c2cnc3ccccc3c2)c(=O)c2c1c1ccccc1n2C)c1ccccc1` [Example 177, N-ethyl-5-methyl-4-oxo-N-phenyl-3-(quinolin-3-yl)-4,5-dihydro-3H-pyridazino[4,5-b]indole-1-carboxamide]: the Emax was in the range of 30 to 80%.
Consider `CCN(C(=O)c1nn(-c2ccc(Cl)cc2)c(=O)c2c1c1ccccc1n2C)c1ccccc1` [Example 178, 3-(4-chlorophenyl)-N-ethyl-5-methyl-4-oxo-N-phenyl-4,5-dihydro-3H-pyridazino[4,5-b]indole-1-carboxamide], for which the Emax fell in the range of 30 to 80%.
Regarding `CCN(C(=O)c1nn(-c2ccc(OC)cc2)c(=O)c2c1c1ccccc1n2C)c1ccccc1` [Example 179, N-ethyl-3-(4-methoxyphenyl)-5-methyl-4-oxo-N-phenyl-4,5-dihydro-3H-pyridazino[4,5-b]indole-1-carboxamide], the Emax is 30 to 80% and the EC50 was greater than 20 µM.
For the compound `CCN(C(=O)c1nn(-c2ccc(C)cn2)c(=O)c2c1c1ccccc1n2C)c1ccccc1` [Example 180, N-ethyl-5-methyl-3-(5-methylpyridin-2-yl)-4-oxo-N-phenyl-4,5-dihydro-3H-pyridazino[4,5-b]indole-1-carboxamide], the Emax lay in the range of 10 to 30%.
On to `CCN(C(=O)c1nn(-c2ccccc2)c(=O)c2c1c1ccccc1n2C)c1cccc(Cl)c1` [Example 181, N-(3-chlorophenyl)-N-ethyl-5-methyl-4-oxo-3-phenyl-4,5-dihydro-3H-pyridazino[4,5-b]indole-1-carboxamide], for which the Emax was in the range of 30 to 80%.
`CCN(C(=O)c1nn(-c2ccc(C)cc2)c(=O)c2c1c1ccccc1n2C)c1ccc2c(c1)OC(F)(F)O2` [Example 182, N-(2,2-difluorobenzo[d][1, 3]dioxol-5-yl)-N-ethyl-5-methyl-4-oxo-3-(p-tolyl)-4,5-dihydro-3H-pyridazino[4,5-b]indole-1-carboxamide]: the Emax lay in the range of 30 to 80%.
In the case of `CCN(C(=O)c1nn(-c2ccc(C)cc2)c(=O)c2c1c1ccccc1n2C)c1cc(Cl)ccc1C(=O)O` [Example 183, 4-chloro-2-(N-ethyl-5-methyl-4-oxo-3-(p-tolyl)-4,5-dihydro-3H-pyridazino[4,5-b]indole-1-carboxamido)benzoic acid], the Emax was 30 to 80%.
Turning to `Cc1ccc(-n2nc(C(=O)Nc3cc(Cl)ccc3C(=O)O)c3c4ccccc4n(C)c3c2=O)cc1` [Example 184, 4-chloro-2-(5-methyl-4-oxo-3-(p-tolyl)-4,5-dihydro-3H-pyridazino[4,5-b]indole-1-carboxamido)benzoic acid], the Emax lay in the range of 30 to 80% and the EC50 was greater than 20 µM.
Take `CCN(C(=O)c1nn(C2CCOCC2)c(=O)c2c1c1ccccc1n2C)c1ccccc1` [Example 185, N-ethyl-5-methyl-4-oxo-N-phenyl-3-(tetrahydro-2H-pyran-4-yl)-4,5-dihydro-3H-pyridazino[4,5-b]indole-1-carboxamide]: the Emax was 30 to 80% and the EC50 is less than 10 µM.
In the same order, the values of `CC(C)N(C(=O)c1nn(-c2ccccn2)c(=O)c2c1c1ccccc1n2C)c1ccccc1` [Example 186, N-isopropyl-5-methyl-4-oxo-N-phenyl-3-(pyridin-2-yl)-4,5-dihydro-3H-pyridazino[4,5-b]indole-1-carboxamide] are 10 to 30% and less than 10 µM.
The corresponding values for `CCN(C(=O)c1nn(-c2ccc(C)cc2)c(=O)c2c1c1cc(OC)ccc1n2C)c1ccccc1` [Example 187, N-ethyl-8-methoxy-5-methyl-4-oxo-N-phenyl-3-(p-tolyl)-4,5-dihydro-3H-pyridazino[4,5-b]indole-1-carboxamide] are 30 to 80% and greater than 20 µM.
As to `CCN(C(=O)c1nn(-c2ccc(C)cc2)c(=O)c2c1c1ccc(OC)cc1n2C)c1ccccc1` [Example 188, N-ethyl-7-methoxy-5-methyl-4-oxo-N-phenyl-3-(p-tolyl)-4,5-dihydro-3H-pyridazino[4,5-b]indole-1-carboxamide], the Emax lay in the range of 30 to 80% and the EC50 is greater than 20 µM.
For `CCN(C(=O)c1nn(-c2ccc(C)cc2)c(=O)c2c1c1cccc(OC)c1n2C)c1ccccc1` [Example 189, N-ethyl-6-methoxy-5-methyl-4-oxo-N-phenyl-3-(p-tolyl)-4,5-dihydro-3H-pyridazino[4,5-b]indole-1-carboxamide], the Emax was 30 to 80% and the EC50 is greater than 20 µM.
With `CC(C)N(C(=O)c1nn(-c2ccccc2)c(=O)c2c1c1ccccc1n2C)c1ccc(Cl)cc1` [Example 190, N-(4-chlorophenyl)-N-isopropyl-5-methyl-4-oxo-3-phenyl-4,5-dihydro-3H-pyridazino[4,5-b]indole-1-carboxamide], the Emax fell in the range of 30 to 80% and the EC50 is less than 10 µM.
In the same order, the values of `CC(C)N(C(=O)c1nn(-c2cnc3ccccc3c2)c(=O)c2c1c1ccccc1n2C)c1ccccc1` [Example 191, N-isopropyl-5-methyl-4-oxo-N-phenyl-3-(quinolin-3-yl)-4,5-dihydro-3H-pyridazino[4,5-b]indole-1-carboxamide] are 30 to 80% and greater than 20 µM.
For the compound `CCN(C(=O)c1nn(-c2ccc(OC)c(Cl)c2)c(=O)c2c1c1ccccc1n2C)c1ccccn1` [Example 192, 3-(3-chloro-4-methoxyphenyl)-N-ethyl-5-methyl-4-oxo-N-(pyridin-2-yl)-4,5-dihydro-3H-pyridazino[4,5-b]indole-1-carboxamide], the Emax lay within 30 to 80% and the EC50 was less than 10 µM.
The corresponding values for `CCN(C(=O)c1nn(-c2ccc(C(F)(F)F)cn2)c(=O)c2c1c1ccccc1n2C)c1ccccc1` [Example 193, N-ethyl-5-methyl-4-oxo-N-phenyl-3-(5-(trifluoromethyl)pyridin-2-yl)-4,5-dihydro-3H-pyridazino[4,5-b]indole-1-carboxamide] are 30 to 80% and less than 10 µM.
Turning to `CCN(C(=O)c1nn(-c2ccc(C(F)(F)F)cc2)c(=O)c2c1c1ccccc1n2C)c1ccccc1` [Example 194, N-ethyl-5-methyl-4-oxo-N-phenyl-3-(4-(trifluoromethyl)phenyl)-4,5-dihydro-3H-pyridazino[4,5-b]indole-1-carboxamide], the Emax is 30 to 80% and the EC50 was greater than 20 µM.
